Drawing on patent US8415469B2, “Compounds and methods for kinase modulation, and indications therefor” (Plexxikon Inc., priority 2005, dated 2013), this text covers IC50 for 17 compounds.

What all share (assay type): biochemical
The target of assay [1] is T1, Irak4 (Homo sapiens, UniProt Q9NWZ3).
T1 construct: purchased Invitrogen (assay run by Invitrogen)
T1 sequence (Q9NWZ3 1-460): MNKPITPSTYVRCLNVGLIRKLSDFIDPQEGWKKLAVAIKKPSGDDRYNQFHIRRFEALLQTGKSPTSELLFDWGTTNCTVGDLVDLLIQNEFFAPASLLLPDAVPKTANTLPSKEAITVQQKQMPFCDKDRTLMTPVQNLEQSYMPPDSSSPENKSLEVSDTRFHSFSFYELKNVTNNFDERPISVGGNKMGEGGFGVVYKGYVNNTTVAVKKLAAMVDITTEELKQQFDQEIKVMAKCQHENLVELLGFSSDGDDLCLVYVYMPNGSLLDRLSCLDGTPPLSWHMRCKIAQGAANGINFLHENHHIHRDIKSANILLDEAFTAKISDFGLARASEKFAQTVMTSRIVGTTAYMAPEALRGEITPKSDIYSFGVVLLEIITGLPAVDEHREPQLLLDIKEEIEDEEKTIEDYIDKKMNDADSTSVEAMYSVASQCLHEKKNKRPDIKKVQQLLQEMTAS
The assay can be described thus: Z'-Lyte FRET kinase assay (Invitrogen), Irak4. Conditions: read-out: IC50, activity toward kinase Irak4. From the text:
The effect of potential modulators of kinase activity can be measured in a variety of different assays known in the art. For example, direct radiometric, indirect FRET or AlphaScreen assays may be used to assess the level of phosphorylation of a substrate in the presence of test compounds in order to determine the inhibitory affect of the compound on the kinase. Invitrogen (Carlsbad, Calif.) uses a FRET based assay for Btk, EGFR, EphB2, Flt3, lrak4, Kdr, MAP2K1, MAPKAPK2, PDGFRB, PKC theta, Stk6 and Yes. For these assays, compounds of the invention were screened by Invitrogen using Z′-Lyte™ kinase assay.
Briefly, the Invitrogen kinase assay involves use of a specific peptide substrate optimized for each kinase, containing a fluorophore at each end that make up the FRET pair. The peptide sensitivity to proteolytic cleavage depends on phosphorylation of the peptide. Non-phosphorylated peptide is cleaved by a protease while peptide phosphorylated by the kinase is not cleaved. Cleavage of the peptide disrupts the FRET between the donor (coumarin) and acceptor (fluorescein) fluorophores, resulting in an increase in the ratio of donor emission to acceptor emission. The emission ratio of coumarin to fluorescein is used to assess the reaction progress. The extent of phosphorylation is determined from the emission ratio, which is low when the kinase is active (phosphorylated peptide is not cleaved, FRET pair connected) or higher for inhibited kinase (non-phosphorylated peptide is cleaved, FRET pair separated). Thus, the assay involves a kinase reaction in the presence of varying concentrations of a given compound, a development reaction with site specific protease, and detection of the fluorescent emission ratio of coumarin and fluorscein. […] Reaction conditions for each kinase are determined to provide optimal reaction times, incubation temperature, kinase and ATP concentrations. Test samples are made up in 1× kinase buffer (50 mM HEPES pH 7.5, 50 mM MgCl2, 5 mM EGTA, 0.05% BRIJ-35) and compound at desired concentration prepared in DMSO such that the final DMSO is 1%. […] Typically, assay plates are prepared to 10 μl final volume per sample, adding 2.5 μl of compound at 4× the desired concentration in 4% DMSO (serial dilution of compound provides concentration curve), 5 μl of the desired kinase mixed with Z′-LYTE™ peptide substrate (2× in 2× kinase buffer, final peptide at 2 μM), and 2.5 μl of 4×ATP solution. All kinase except for MAP2K1 were at 10 μM ATP in the kinase reaction, while MAP2K1 was at 100 μM. Samples are mixed and the kinase reaction is incubated 1 hour at room temperature, after which 5 μl of development solution is added and mixed. After incubation for another 1 hour at room temperature, 5 μl of stop reagent is added to each sample and mixed. The fluorescence signals are measured to determine the emission ratio.

Assay [2] deals with T2, IKK beta (Homo sapiens, UniProt O14920).
T2 sequence (O14920 1-756): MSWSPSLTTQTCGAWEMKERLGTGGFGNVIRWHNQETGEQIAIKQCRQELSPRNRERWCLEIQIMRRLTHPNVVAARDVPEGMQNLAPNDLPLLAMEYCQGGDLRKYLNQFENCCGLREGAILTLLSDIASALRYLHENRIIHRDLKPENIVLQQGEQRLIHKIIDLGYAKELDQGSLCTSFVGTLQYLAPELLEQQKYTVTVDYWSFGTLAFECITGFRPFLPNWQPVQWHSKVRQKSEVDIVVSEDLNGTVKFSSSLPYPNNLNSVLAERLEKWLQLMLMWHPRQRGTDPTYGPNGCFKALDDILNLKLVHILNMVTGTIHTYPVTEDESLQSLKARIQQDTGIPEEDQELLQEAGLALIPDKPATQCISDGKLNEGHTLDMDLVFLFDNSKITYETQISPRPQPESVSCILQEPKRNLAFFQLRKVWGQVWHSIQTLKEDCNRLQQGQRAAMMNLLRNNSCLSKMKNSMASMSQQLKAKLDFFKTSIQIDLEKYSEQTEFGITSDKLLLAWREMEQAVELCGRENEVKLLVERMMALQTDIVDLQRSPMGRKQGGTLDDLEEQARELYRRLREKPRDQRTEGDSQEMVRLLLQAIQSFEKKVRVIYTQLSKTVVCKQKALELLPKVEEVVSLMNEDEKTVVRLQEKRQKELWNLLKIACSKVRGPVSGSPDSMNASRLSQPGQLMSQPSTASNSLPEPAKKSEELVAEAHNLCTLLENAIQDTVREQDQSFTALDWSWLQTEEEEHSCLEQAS
Put plainly: AlphaScreen kinase assay, IKK beta. The conditions noted are these: read-out: IC50, activity toward kinase IKK beta.

In assay [3] the target is Brk (Homo sapiens, UniProt Q13882). The assay can be described thus: AlphaScreen kinase assay, Brk. The conditions noted are these: read-out: IC50, activity toward kinase Brk. In outline: (§1)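 Eight concentrations per compound (1:3 serial dilution of 20 mM DMSO stock) were tested. Read-out: AlphaScreen signal from phospho-antibody acceptor and streptavidin donor beads bound to biotinylated peptide substrate, reduced on kinase inhibition.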
Sequence of Brk (Q13882 whole entry): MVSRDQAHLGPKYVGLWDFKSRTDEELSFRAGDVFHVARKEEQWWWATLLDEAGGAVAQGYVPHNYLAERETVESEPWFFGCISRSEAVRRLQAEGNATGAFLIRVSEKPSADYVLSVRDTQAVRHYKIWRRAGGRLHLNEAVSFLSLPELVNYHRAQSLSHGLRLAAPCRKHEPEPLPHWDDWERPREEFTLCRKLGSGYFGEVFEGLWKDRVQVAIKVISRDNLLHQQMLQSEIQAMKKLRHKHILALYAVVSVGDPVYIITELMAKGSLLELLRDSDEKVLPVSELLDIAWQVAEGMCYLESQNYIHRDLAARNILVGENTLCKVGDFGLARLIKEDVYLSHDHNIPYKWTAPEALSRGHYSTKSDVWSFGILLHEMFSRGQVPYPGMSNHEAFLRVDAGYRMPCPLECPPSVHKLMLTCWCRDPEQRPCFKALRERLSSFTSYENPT
A general note: In Alpha technology, singlet oxygen from a donor bead excites a nearby acceptor bead.

For assay [4], the target named is Plk1 (Homo sapiens, UniProt P53350). The assay can be described thus: AlphaScreen kinase assay, Plk1. Conditions: read-out: IC50, activity toward kinase Plk1. In outline:
as §1

Assay [5] addresses Tie2 (Homo sapiens, UniProt Q02763). Put plainly: AlphaScreen kinase assay, Tie2. The conditions noted are these: read-out: IC50, activity toward kinase Tie2. From the text: (§2) AlphaScreen assay was used to screen additional kinases. The assay is similarly dependent on the phosphorylation of a peptide substrate. In this assay, an antibody that recognizes phosphorylated substrate is bound to an acceptor bead. The peptide substrate is attached to biotin, which binds to a donor head that contains streptavidin. Thus phosphorylated substrate is bound by antibody and streptavidin, bringing the donor and acceptor heads into close proximity when kinase is not inhibited. The donor produces singlet oxygen which results in emission from the acceptor when they are in close proximity. Conversely, when kinase is inhibited, the donor and acceptor beads are not associated and the emission from the acceptor is reduced.
(§3) AlphaScreen assays were done using compounds dissolved in DMSO to a concentration of 20 mM. The compounds were diluted accordingly to the desired final concentrations in each sample well, using 1:3 serial dilution for a total of 8 concentration points.

In assay [6] the target is ALK (Homo sapiens, UniProt Q9UM73). Put plainly: AlphaScreen kinase assay, ALK. Conditions: read-out: IC50, activity toward kinase ALK.
Sequence of ALK (Q9UM73 19-1620): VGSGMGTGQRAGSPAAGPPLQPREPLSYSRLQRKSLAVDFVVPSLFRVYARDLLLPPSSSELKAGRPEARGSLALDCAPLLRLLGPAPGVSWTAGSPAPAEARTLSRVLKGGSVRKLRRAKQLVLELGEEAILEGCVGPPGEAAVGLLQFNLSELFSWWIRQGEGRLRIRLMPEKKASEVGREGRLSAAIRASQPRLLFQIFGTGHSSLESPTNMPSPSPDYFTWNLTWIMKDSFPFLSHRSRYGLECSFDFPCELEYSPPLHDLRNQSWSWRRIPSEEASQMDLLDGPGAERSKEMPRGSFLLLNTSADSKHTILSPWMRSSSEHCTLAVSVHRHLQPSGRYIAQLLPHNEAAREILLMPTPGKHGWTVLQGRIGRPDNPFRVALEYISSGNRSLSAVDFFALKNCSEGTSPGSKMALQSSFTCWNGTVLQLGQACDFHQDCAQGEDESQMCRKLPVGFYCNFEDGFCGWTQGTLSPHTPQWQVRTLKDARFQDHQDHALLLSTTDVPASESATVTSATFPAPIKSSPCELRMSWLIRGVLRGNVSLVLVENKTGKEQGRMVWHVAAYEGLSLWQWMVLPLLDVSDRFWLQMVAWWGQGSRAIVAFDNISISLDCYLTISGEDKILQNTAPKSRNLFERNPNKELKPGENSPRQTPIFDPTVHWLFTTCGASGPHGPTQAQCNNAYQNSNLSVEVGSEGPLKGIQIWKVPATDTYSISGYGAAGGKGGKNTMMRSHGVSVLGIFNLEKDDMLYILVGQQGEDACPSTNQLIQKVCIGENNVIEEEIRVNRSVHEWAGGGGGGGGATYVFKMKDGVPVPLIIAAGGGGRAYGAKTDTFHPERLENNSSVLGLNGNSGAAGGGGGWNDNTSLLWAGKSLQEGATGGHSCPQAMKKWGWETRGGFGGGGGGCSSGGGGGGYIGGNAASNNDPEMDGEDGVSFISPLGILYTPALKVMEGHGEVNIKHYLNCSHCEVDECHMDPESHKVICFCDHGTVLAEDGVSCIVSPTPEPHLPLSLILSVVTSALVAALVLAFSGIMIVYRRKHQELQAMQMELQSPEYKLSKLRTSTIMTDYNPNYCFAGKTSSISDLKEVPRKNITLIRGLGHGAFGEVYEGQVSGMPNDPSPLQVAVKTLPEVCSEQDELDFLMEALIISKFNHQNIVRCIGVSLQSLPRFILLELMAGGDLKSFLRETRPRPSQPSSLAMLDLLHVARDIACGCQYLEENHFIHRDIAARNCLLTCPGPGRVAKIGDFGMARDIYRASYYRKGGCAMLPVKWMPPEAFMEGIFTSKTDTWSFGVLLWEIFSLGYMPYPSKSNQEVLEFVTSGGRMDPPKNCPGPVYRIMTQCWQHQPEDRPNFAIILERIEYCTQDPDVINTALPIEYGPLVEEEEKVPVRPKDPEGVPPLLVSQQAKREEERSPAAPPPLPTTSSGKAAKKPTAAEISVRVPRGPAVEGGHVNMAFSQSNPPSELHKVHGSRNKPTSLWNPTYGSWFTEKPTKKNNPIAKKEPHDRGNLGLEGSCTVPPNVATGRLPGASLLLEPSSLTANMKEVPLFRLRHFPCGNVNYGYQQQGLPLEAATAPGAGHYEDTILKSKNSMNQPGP
Description: as §2, §3

Sequence of Plk1 (P53350 whole entry): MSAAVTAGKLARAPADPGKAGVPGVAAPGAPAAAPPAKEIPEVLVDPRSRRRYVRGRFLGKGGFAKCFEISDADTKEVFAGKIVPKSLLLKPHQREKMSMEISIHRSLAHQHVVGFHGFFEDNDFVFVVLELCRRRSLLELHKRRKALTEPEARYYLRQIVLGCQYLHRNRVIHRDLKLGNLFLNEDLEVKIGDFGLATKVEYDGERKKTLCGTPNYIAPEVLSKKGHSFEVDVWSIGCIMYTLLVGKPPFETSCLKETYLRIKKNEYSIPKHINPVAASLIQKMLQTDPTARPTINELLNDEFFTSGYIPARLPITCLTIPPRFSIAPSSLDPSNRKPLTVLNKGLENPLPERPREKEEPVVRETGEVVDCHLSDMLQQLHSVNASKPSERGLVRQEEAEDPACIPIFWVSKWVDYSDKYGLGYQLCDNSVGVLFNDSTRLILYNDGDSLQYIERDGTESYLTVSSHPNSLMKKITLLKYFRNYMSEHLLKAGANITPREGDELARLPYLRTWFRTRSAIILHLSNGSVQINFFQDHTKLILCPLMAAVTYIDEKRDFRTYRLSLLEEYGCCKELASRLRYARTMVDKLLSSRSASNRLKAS
Sequence of Tie2 (Q02763 23-1124): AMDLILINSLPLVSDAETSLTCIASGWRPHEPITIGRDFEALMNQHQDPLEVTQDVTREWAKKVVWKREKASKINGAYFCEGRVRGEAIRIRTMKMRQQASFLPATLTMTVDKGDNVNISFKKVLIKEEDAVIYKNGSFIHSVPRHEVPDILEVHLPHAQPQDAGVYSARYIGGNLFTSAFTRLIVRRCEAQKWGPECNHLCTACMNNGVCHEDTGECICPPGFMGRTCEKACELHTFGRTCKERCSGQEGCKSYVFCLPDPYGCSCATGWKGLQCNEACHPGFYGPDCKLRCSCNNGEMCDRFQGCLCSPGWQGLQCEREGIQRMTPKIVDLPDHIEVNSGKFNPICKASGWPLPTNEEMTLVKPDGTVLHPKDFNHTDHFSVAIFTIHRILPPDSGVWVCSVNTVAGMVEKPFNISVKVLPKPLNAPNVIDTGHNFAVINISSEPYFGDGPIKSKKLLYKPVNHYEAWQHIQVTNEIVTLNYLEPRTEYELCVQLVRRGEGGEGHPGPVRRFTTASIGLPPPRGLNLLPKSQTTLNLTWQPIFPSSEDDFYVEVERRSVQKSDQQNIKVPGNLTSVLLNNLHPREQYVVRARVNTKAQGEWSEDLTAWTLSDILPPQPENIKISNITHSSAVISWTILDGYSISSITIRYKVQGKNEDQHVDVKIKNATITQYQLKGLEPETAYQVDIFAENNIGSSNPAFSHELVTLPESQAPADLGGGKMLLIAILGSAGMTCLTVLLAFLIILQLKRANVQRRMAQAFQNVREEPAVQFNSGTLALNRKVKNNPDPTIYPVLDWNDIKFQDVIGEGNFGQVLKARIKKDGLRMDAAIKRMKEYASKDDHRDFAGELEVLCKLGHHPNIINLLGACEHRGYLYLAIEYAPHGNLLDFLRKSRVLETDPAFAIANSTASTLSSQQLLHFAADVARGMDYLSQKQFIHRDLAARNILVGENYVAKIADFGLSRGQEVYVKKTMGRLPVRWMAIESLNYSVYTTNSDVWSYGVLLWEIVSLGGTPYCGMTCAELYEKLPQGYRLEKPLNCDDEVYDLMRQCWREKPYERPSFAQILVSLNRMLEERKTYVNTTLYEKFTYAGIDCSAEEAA

`Nc1cccc(-c2cnc3[nH]cc(C(=O)c4cc(O)ccc4F)c3c2)c1` [Compound P-0002]: the IC50 in assay [1] was ≤ 10 µM.

`CCCS(=O)(=O)Nc1ccc(F)c(C(=O)c2c[nH]c3ncccc23)c1F` [Compound P-0007, Propane-1-sulfonic acid [2,4-difluoro-3-(1H-pyrrolo[2,3-b]pyridine-3-carbonyl)-phenyl]-amide]: the IC50 in assay [2] and in assay [3] was ≤ 10 µM each time. Take `NC(=O)c1ccc(-c2ccnc3[nH]cc(C(=O)c4cc(F)ccc4F)c23)cc1` [Compound P-0013]: the IC50 in assay [2] was ≤ 10 µM.

For the compound `NC(=O)c1ccc(-c2ccnc3[nH]cc(C(=O)c4ccccc4F)c23)cc1` [Compound P-0014], the IC50 in assay [2] was ≤ 10 µM. In the case of `CS(=O)(=O)c1cccc(-c2cnc3[nH]cc(C(O)c4c(F)ccc(F)c4F)c3c2)c1` (centres unmarked) [Compound P-0020], the IC50 in assay [1] is ≤ 10 µM. With `Nc1cccc(-c2ccnc3[nH]cc(C(=O)c4ccccc4F)c23)c1` [Compound P-0022], in assay [4], the IC50 was ≤ 10 µM. As for `Nc1ccnc2[nH]cc(C(=O)c3ccccc3)c12` [Compound P-0029], the IC50 in assay [2] was ≤ 10 µM.

Turning to `Cc1ccccc1C(=O)c1c[nH]c2nccc(-c3cccc(N)c3)c12` [Compound P-0044], the IC50 in assay [4] is ≤ 10 µM. On the same count and under the same terms, to `Nc1cccc(-c2ccnc3[nH]cc(C(=O)c4cc(F)ccc4F)c23)c1` [Compound P-0046] belongs ≤ 10 µM; to `O=C(c1cccc(O)c1F)c1c[nH]c2ncc(Br)cc12` [Compound P-0067, (5-bromo-1H-pyrrolo[2,3-b]pyridin-3-yl)-(2-fluoro-3-hydroxy-phenyl)-methanone], ≤ 10 µM.

Regarding `Fc1cc(F)cc(-c2ccnc3[nH]cc(Sc4ccccn4)c23)c1` [Compound P-0106], the IC50 in assay [2] was ≤ 10 µM.

As to `CCCS(=O)(=O)Nc1ccc(F)c(C(=O)c2c[nH]c3ncc(OC)cc23)c1F` [Compound P-0806, Propane-1-sulfonic acid [2,4-difluoro-3-(5-methoxy-1H-pyrrolo[2,3-b]pyridine-3-carbonyl)-phenyl]-amide], the IC50 in assay [5], in assay [6] and in assay [3] was ≤ 10 µM in each case. Turning to `CCCC(=O)Nc1ccc(F)c(Cc2c[nH]c3ncc(-c4cccnc4)cc23)c1F` [Compound P-1280], the IC50 in assay [5] and in assay [6] was ≤ 10 µM in each case. Consider `CCCCNC(=O)Nc1ccc(F)c(C(=O)c2c[nH]c3ncc(-c4cccnc4)cc23)c1F` [Compound P-1318, 1-Butyl-3-[2,4-difluoro-3-(5-pyridin-3-yl-1H-pyrrolo[2,3-b]pyridine-3-carbonyl)-phenyl]-urea], for which the IC50 in assay [3] is ≤ 10 µM.

On to `COc1cccc(C(=O)c2c[nH]c3ncc(-c4cccc(NC(C)=O)c4)cc23)c1F` [Compound P-1336, N-{3-[3-(2-Fluoro-3-methoxy-benzoyl)-1H-pyrrolo[2,3-b]pyridin-5-yl]-phenyl}-acetamide], for which the IC50 in assay [5], in assay [6] and in assay [3] was ≤ 10 µM throughout. On to `OCCOc1ccc(F)c(Cc2c[nH]c3ncc(-c4cccnc4)cc23)c1F` [Compound P-1394, 2-[2,4-Difluoro-3-(5-pyridin-3-yl-1H-pyrrolo[2,3-b]pyridin-3-ylmethyl)-phenoxy]-ethanol], for which the IC50 in assay [5], in assay [6] and in assay [3] was ≤ 10 µM throughout. As for `COc1cc(OC)cc(C(=O)c2c[nH]c3ncc(-c4cccc(NS(C)(=O)=O)c4)cc23)c1` [Compound P-1426, N-{3-[3-(3,5-Dimethoxy-benzoyl)-1H-pyrrolo[2,3-b]pyridin-5-yl]-phenyl}-methanesulfonamide], the IC50 in assay [5] and in assay [6] was ≤ 10 µM throughout.

As a reminder, the IC50 is the midpoint of a concentration-inhibition curve.
